The values below come from PubChem BioAssay (NCI).

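Compound exposure: 48 hours, 5 concentrations, 96-well plates. TGI: concentration producing complete growth inhibition.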 Some results are limits rather than exact numbers.

Common to all, as to assay: NCI anticancer screen, dose series, 48 h
Assay [1] concerns NCI/ADR-RES ovarian.
In assay [2] the test system is LOX IMVI melanoma.
Assay [3] concerns KM12 colon.
Assay [4] has as its system HL-60(TB) leukemia.
In assay [5] the test system is UACC-62 melanoma.
For assay [6], the system named is OVCAR-8 ovarian.
The subject of assay [7] is OVCAR-4 ovarian.
The test system of assay [8] is SN12C renal.
Assay [9] deals with OVCAR-3 ovarian.
Assay [10] deals with SF-268 CNS.
Assay [11] concerns IGROV1 ovarian.
Assay [12] deals with OVCAR-5 ovarian.
Assay [13] concerns T-47D breast.

Turning to `CC(C)/C(Cl)=N\OC(=O)Nc1ccc(F)c([N+](=O)[O-])c1`, the TGI came to 35.2 µM in assay [1]; 10.7 µM in [2]; 28.5 µM in [3]; 2.85 µM in assay [4]; 39.1 µM in assay [5]; 10.9 µM in assay [6]. The TGI in assay [7] was 8.99 µM; in assay [8] it was 16.5 µM; in [9], 27.2 µM; in [10] it was 27.6 µM; in assay [11], 13.5 µM; in assay [12], 42.8 µM.
With `C[N+](C)(C)Cc1c(CC#N)[nH]c2ccccc12`, the TGI in assay [2], in assay [3], in assay [4], in [5], in [6] and in [7] was over 100 µM each time. The TGI in assay [8], in assay [9], in assay [10], in [11] and in [12] was over 100 µM throughout.
Turning to `Cn1c(=O)c2c(ncn2CCSS(=O)(=O)O)n(C)c1=O`, the TGI in [1], in assay [13], in [3], in assay [5], in assay [6] and in assay [7] was over 100 µM throughout. The TGI in assay [8], in assay [9], in assay [10], in assay [11] and in assay [12] was over 100 µM each time.
As to `O=C(O)C(Cc1cnc[nH]1)N=Cc1nc(-c2ccccc2)oc1O` (centres undefined), the TGI in [2], in assay [4], in assay [5], in assay [6], in assay [7] and in assay [8] was over 100 µM throughout. Also, the TGI in [9], in assay [10], in assay [11] and in [12] was over 100 µM in each case.
`COc1ccccc1-c1nc2ccccc2c(=O)[nH]1`: the TGI in [1], in assay [13], in assay [3], in assay [5], in assay [6] and in assay [7] was over 100 µM throughout. In addition, the TGI in assay [8], in assay [9], in assay [10], in assay [11] and in assay [12] was over 100 µM throughout.
With `CCn1c(-c2ccccc2)nc2c1C(=O)c1ccccc1C2=O`, the TGI in assay [1] is 33.9 µM; in assay [3], 73.8 µM; in assay [4], over 100 µM; in assay [5], 60.2 µM; in [6], 35 µM; in [7], 30 µM. Moreover, the TGI was over 100 µM in [8], 49.5 µM in assay [9], 79.8 µM in assay [11] and 82.8 µM in assay [12].
For `Cc1ccc(S(=O)(=O)N/N=C/c2oc(-c3ccccc3Cl)c(-c3ccccc3Cl)c2[N+](=O)[O-])cc1`, the TGI in [3] is over 100 µM; in assay [4], 39.9 µM; in [5], 65.8 µM; in [6] it was over 100 µM; in assay [7], over 100 µM; in [8] it was 66.6 µM. Besides, the TGI in [9] is over 100 µM; in [10] it was over 100 µM; in assay [11] it was 73.3 µM; in [12], 34.2 µM.
Regarding `O=C1c2ccccc2C(=O)C2C3c4ccccc4C(c4ccccc43)C12` (centres undefined), the TGI was 28.9 µM in assay [2]; over 100 µM in assay [3]; over 100 µM in [5]; 42.3 µM in assay [6]; 61.5 µM in assay [8]; 45.8 µM in assay [9]. Besides, the TGI was found to be 34.9 µM in assay [10] and 78.3 µM in assay [11].
As for `O=C1SC(c2ccccc2)(c2ccccc2)c2ccccc21`, the TGI in [2], in assay [3], in assay [4], in assay [5], in [6] and in assay [7] was over 100 µM each time. Besides, the TGI in [8], in assay [9], in assay [10] and in [11] was over 100 µM in each case.
Regarding `Cc1nc2c(n1CCC(C)C)C(=O)c1ccccc1C2=O`, the TGI in assay [2] is 30.9 µM; in assay [3], over 100 µM; in [4] it was 28.1 µM; in [5], 27 µM; in assay [6] it was over 100 µM; in assay [7] it was over 100 µM. The TGI in assay [8] worked out at 64.3 µM; in [9], 71.4 µM; in assay [10], 43.1 µM; in assay [11], 58.9 µM.
For the compound `O=c1[nH]c(=O)n(C2CC(O)C(CO)O2)cc1C#Cc1cc(C(F)(F)F)cc(C(F)(F)F)c1` (centres undefined), the TGI is over 45.9 µM in assay [2]; over 100 µM in assay [3]; over 100 µM in assay [4]; over 31.6 µM in assay [5]; over 100 µM in assay [6]; over 100 µM in assay [7]. Further, the TGI in [8], in [9], in assay [10], in [11] and in assay [12] was over 100 µM throughout.
`CC(C)[Si](OCC1CC(C[C@H]2CC(C[C@H]3C[C@@H](CO[Si](C(C)C)(C(C)C)C(C)C)OC(C)(C)O3)OC(C)(C)O2)OC(C)(C)O1)(C(C)C)C(C)C` (some centres undefined): the TGI in assay [2], in [3], in [4], in assay [5], in assay [6] and in [7] was over 100 µM in each case. Also, the TGI in [9], in assay [10], in [11] and in assay [12] was over 100 µM in each case.
Regarding `CC(C)C(Sc1nc(-c2ccccc2)c(-c2ccccc2)[nH]1)C(=O)N/N=C/c1ccc([N+](=O)[O-])cc1` (centres undefined), the TGI in assay [2] was 26 µM; in assay [3], 24.5 µM; in assay [4], 33.5 µM; in assay [5], 31.5 µM; in [6], over 100 µM; in [7], 80.5 µM. Further, the TGI in assay [8] worked out at 25.9 µM; in assay [9], 21.3 µM; in [10] it was 40 µM; in assay [11] it was 42.2 µM; in [12], 44.8 µM.
With `CNC(=O)c1n[nH]n(Cc2ccccc2)c1=S`, the TGI in [1], in [13], in [3], in assay [5], in [6] and in assay [7] was over 100 µM in each case. Further, the TGI in assay [8], in [9], in assay [11] and in assay [12] was over 100 µM each time.
With `NC(CCCCN=Cc1nc(-c2ccccc2)oc1O)C(=O)O` (centres undefined), the TGI in [2], in [4], in [5], in assay [6], in assay [7] and in assay [8] was over 100 µM throughout. The TGI in [9], in assay [10], in assay [11] and in assay [12] was over 100 µM throughout.
`COc1cc2c(oc(=O)c3cc4ccoc4c(OC)c32)c2cccc(O)c12`: the TGI in assay [2], in assay [3], in assay [4], in [5], in assay [6] and in assay [7] was over 100 µM throughout. Also, the TGI in [8], in assay [9], in assay [10], in assay [11] and in assay [12] was over 100 µM each time.
`CCN(CC)CCNc1ccc2ncn3c4c(OC)cccc4c(=O)c1c23`: the TGI in [13] is over 100 µM; in assay [3], 17.4 µM; in [5], 25.3 µM; in [6] it was 55.6 µM; in assay [7], 15.4 µM; in [8], 17.7 µM. Further, the TGI in assay [9] worked out at 50.9 µM; in [10], 17.6 µM; in [11], 34.7 µM.
`CN(C)CCCNC(=O)c1cc(NC(=O)c2cc(NC(=O)[C@H]3C[C@@H]3C(=O)Nc3cc(C(=O)Nc4cc(C(=O)NCCCN(C)C)n(C)c4)n(C)c3)cn2C)cn1C`: the TGI in [1], in assay [2], in assay [3], in assay [4], in [6] and in assay [7] was over 100 µM in each case. Moreover, the TGI in assay [8], in [10], in assay [11] and in [12] was over 100 µM in each case.
As to `NC(CCCNc1cccc(O)c1)C(=O)O` (centres undefined), the TGI in assay [2], in assay [4], in assay [5], in assay [6], in assay [7] and in [8] was over 100 µM throughout. The TGI in assay [9], in assay [10] and in assay [12] was over 100 µM throughout.
